Measurements as given in US4923852A, “Aminoalkyl naphthalenediols as host resistance enhancers against viral infections” (Merck & Co., Inc., priority 1987, dated 1990).
Entries after “also recorded” stand apart in the source; their conditions may differ. Where two headings read alike, the source gives them in different places.

Experiments:
[1] = system: AIDS or AIDS-related complex (ARC); conditions: clinical; cited from earlier work
[2] = cited from earlier work
[3] = in vivo, cited from earlier work
HIV [4] = conditions: clinical; cited from earlier work
T cell levels = conditions: 13 AIDS patients with perpetually swollen glands; cited from earlier work
[5] = system: HIV reverse transcriptase; conditions: cited from earlier work
Pseudomonas aeruginosa = assay: In vivo immunopotentiation against challenge with lethal doses of Pseudomonas aeruginosa, cyclophosphamide-immunocompromised mouse; design: species or system mouse (random outbred albino CFl female); conditions: 250 mg/kg cyclophosphamide i.p., 4 days prior to challenge
Description: An immunocompromised mouse model, established by intraperitoneal treatment of random outbred albino CFl female mice (ca. 25g) with 250 mg/kg body weight of cyclophosphamide (CY) 4 days Prior to bacterial challenge with Pseudomonas aeruginosa, was used as the assay system. In this model, test compounds were injected only once (2 hours) after CY treatment. After bacterial challenge, LD50 's (50% lethal doses) were determined. Increased LD50 's in treated mice over controls indicated a return to normality. The LD50 for untreated or vehicle-treated mice was routinely 10^6 -10^7 colony forming units (CFU) of P. aeruginosa organisms. After CY treatment, the LD50 was reduced to 10^1 to 10^2 CFU's. The protection afforded by test compound (Protective Index) was determined by calculating the number of LD50 's of protection of treated animals over the LD50 of CY controls.

HIV [6] = conditions: cited from earlier work
[7] = system: reverse transcriptase in several retroviruses; conditions: in vitro; cited from earlier work
[8] = system: AIDS-related Kaposi's sarcoma; conditions: some AIDS-related Kaposi's sarcoma cases; cited from earlier work

## CO[C@H]1/C=C/O[C@@]2(C)Oc3c(C)c(O)c4c(c3C2=O)C2=NC3(CCN(CC(C)C)CC3)NC2=C(NC(=O)/C(C)=C\C=C\[C@H](C)[C@H](O)[C@@H](C)[C@@H](O)[C@@H](C)[C@H](OC(C)=O)[C@@H]1C)C4=O [Ansamycin, rifabutin]
[1]
  efficacy in AIDS or ARC patients: some efficacy in treating AIDS patients with an opportunistic infection caused by the bacterium Mycobacterium aviumintracellulare

## Cc1cn([C@H]2C[C@H](N=[N+]=[N-])[C@@H](CO)O2)c(=O)[nH]c1=O [Azidothymidine, 3'-azido-3'-deoxythymidine]
[1]
  efficacy in AIDS or ARC patients: promise in prolonging lives of patients with AIDS or AIDS-related complex (ARC)
[2]; clinical
  adverse / toxic effects in humans: some toxicity, with anemia and headaches
[3]; po
  oral absorption: Well absorbed orally
[3]
  half-life in the body: relatively short half-life
  penetration of central nervous system: effectively penetrates central nervous system

## CC(C)(N1CC1C#N)N1CC1C(N)=O (stereo not shown) [Azimexon]
[1]
  efficacy in AIDS or ARC patients: improvements in symptoms and immune function in patients with ARC but not AIDS
[2]; clinical
  adverse / toxic effects in humans: only toxic effect was mild hemolysis

## CC(C)(S)[C@@H](N)C(=O)O [D-Penicillamine, 3-mercapto-D-valine]
HIV [4]
  effect on HIV reproduction / viral replication in humans: Inhibits HIV reproduction in humans; also recorded: suppressed the virus
T cell levels
  effect on T cell levels: temporarily depressed T cell levels

## O=C(O)P(=O)(O)O [Foscarnet, trisodium phosphonoformate]
[5]
  inhibition of HIV reverse transcriptase: Inhibits HIV reverse transcriptase activity in vitro at levels pharmacologically acceptable in vivo
[2]; in vivo
  adverse / toxic effects in humans: serious side effects

## CC(=O)Nc1ccc(C(=O)O)cc1.CC(=O)Nc1ccc(C(=O)O)cc1.CC(=O)Nc1ccc(C(=O)O)cc1.CC(O)CN(C)C.CC(O)CN(C)C.CC(O)CN(C)C.O=c1[nH]cnc2c1ncn2[C@@H]1O[C@H](CO)[C@@H](O)[C@H]1O [Inosine pranobex, p-Acetamidobenzoic acid salt of dimethylaminoisopropanol: inosinate complex]
[1]
  effect on immune function in patients: improve immune function in ARC patients

## NC(=O)c1ncn([C@@H]2O[C@H](CO)[C@@H](O)[C@H]2O)n1 [Ribavirin, 1-β-D-ribofuranosyl-1,2,4-triazole-3-carboxamide]
HIV [4]
  effect on HIV reproduction / viral replication in humans: inhibited viral replication
[1]
  effect on immune function in patients: improved immune function in AIDS patients
[2]; in vivo
  safety profile: acceptable
  tolerability: well tolerated

## Cc1ccc(C(=O)Nc2ccc(S(=O)(=O)O)c3cc(S(=O)(=O)O)cc(S(=O)(=O)O)c23)cc1NC(=O)c1cccc(NC(=O)Nc2cccc(C(=O)Nc3cc(C(=O)Nc4ccc(S(=O)(=O)O)c5cc(S(=O)(=O)O)cc(S(=O)(=O)O)c45)ccc3C)c2)c1 [Suramin]
[1]
  efficacy in AIDS or ARC patients: little or no evidence of clinical improvement or immunologic recovery
[5]
  inhibition of HIV reverse transcriptase: Potent inhibitor of HIV reverse transcriptase

## O=P1(N(CCCl)CCCl)NCCCO1 (stereo not shown) [cyclophosphamide]
Pseudomonas aeruginosa
  LD50 of P. aeruginosa after CY treatment: 10^1 to 10^2 CFU

## ammonium 21-tungsto-9-antimoniate [HPA-23]
[1]
  efficacy in AIDS or ARC patients: no therapeutic benefit has been documented in AIDS patients
HIV [6]
  effect on HIV infectivity / growth: some tendency to check the growth of HIV
[7]
  inhibition of reverse transcriptase in several retroviruses: Inhibits reverse transcriptase in several retroviruses in vitro

## α-Interferon
HIV [6]
  effect on HIV infectivity / growth: Checks the growth of HIV in vitro
[8]
  tumor regression: induced tumor regression in some AIDS-related Kaposi's sarcoma cases
